In PubChem BioAssay AID2060497 (Molecular Pharmacology Branch, DTP, NCI, 2025):

System: 317291-083-R-J1-PDC complex spheroids, viability
Test: Anticancer human tumor 317291-083-R-J1-PDC patient-derived soft tissue sarcoma cell line growth inhibition [GQUAD]
Details: for IC50: curve of first compound; for viability, T/C: stronger effect = lower value; active means viability on the fitted dose curve at most 10% of control; inactive means the rest
Outline: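 Tumor cells were grown as complex spheroids with HUVEC endothelial cells and mesenchymal stem cells as stroma. G-quadruplex stabilizers were combined with targeted agents over half-log dilutions from near the clinical Cmax, or from 10 microM.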

[1] = second compound 0.0316 µM, first compound 0.0316 µM
[2] = second compound 0.0316 µM, first compound 0.316 µM
[3] = second compound 0.1 µM, first compound 0.0316 µM
[4] = second compound 0.1 µM, first compound 0.316 µM
[5] = second compound 0.316 µM, first compound 0.0316 µM
[6] = second compound 0.316 µM, first compound 0.316 µM
[7] = second compound 1 µM, first compound 0.0316 µM
[8] = second compound 1 µM, first compound 0.316 µM
[9] = second compound 3.16 µM, first compound 0.0316 µM
[10] = second compound 3.16 µM, first compound 0.316 µM
[11] = second compound 10 µM, first compound 0.0316 µM
[12] = second compound 10 µM, first compound 0.316 µM
[13] = second compound 0.0316 µM, first compound 0.1 µM
[14] = second compound 0.0316 µM, first compound 1 µM
[15] = second compound 0.0316 µM, first compound 3.16 µM
[16] = second compound 0.0316 µM, first compound 10 µM
[17] = second compound 0.1 µM, first compound 0.1 µM
[18] = second compound 0.1 µM, first compound 1 µM
[19] = second compound 0.1 µM, first compound 3.16 µM
[20] = second compound 0.1 µM, first compound 10 µM
[21] = second compound 0.316 µM, first compound 0.1 µM
[22] = second compound 0.316 µM, first compound 1 µM
[23] = second compound 0.316 µM, first compound 3.16 µM
[24] = second compound 0.316 µM, first compound 10 µM
[25] = second compound 1 µM, first compound 0.1 µM
[26] = second compound 1 µM, first compound 1 µM
[27] = second compound 1 µM, first compound 3.16 µM
[28] = second compound 1 µM, first compound 10 µM
[29] = second compound 3.16 µM, first compound 0.1 µM
[30] = second compound 3.16 µM, first compound 1 µM
[31] = second compound 3.16 µM, first compound 3.16 µM
[32] = second compound 3.16 µM, first compound 10 µM
[33] = second compound 10 µM, first compound 0.1 µM
[34] = second compound 10 µM, first compound 1 µM
[35] = second compound 10 µM, first compound 3.16 µM
[36] = second compound 10 µM, first compound 10 µM
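Further: spheroids exposed to compounds for one week before readout.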
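Wherever viability, T/C is given: percent viability relative to DMSO vehicle wells taken as 100%.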

Cc1[nH]c2ccccc2c1CCNCc1ccc(/C=C/C(=O)NO)cc1 + CN(C)c1ccc(Nc2c3ccc(NC(=O)CCN4CCCC4)cc3nc3cc(NC(=O)CCN4CCCC4)ccc23)cc1
19.7 nM: IC50 (second compound 0.316 µM)
active: viability, T/C (second compound 0.0316 µM, first compound 0.0999 µM) 8.25% | viability, T/C [2] 0.39% | viability, T/C [4] 0.13% | viability, T/C (second compound 0.316 µM, first compound 0.0999 µM) 5.76% | viability, T/C [6] 0.14% | viability, T/C (second compound 1 µM, first compound 0.0999 µM) 2.82% | viability, T/C [8] 0.27% | viability, T/C (second compound 3.16 µM, first compound 0.000999 µM) 6.7% | viability, T/C (second compound 3.16 µM, first compound 0.00316 µM) 4.52% | viability, T/C (second compound 3.16 µM, first compound 0.00999 µM) 7.77% | viability, T/C [9] 1.86% | viability, T/C (second compound 3.16 µM, first compound 0.0999 µM) 0.59% | viability, T/C [10] 0.18% | viability, T/C (second compound 10 µM, first compound 0.000999 µM) 0.17% | viability, T/C (second compound 10 µM, first compound 0.00316 µM) 0.22% | viability, T/C (second compound 10 µM, first compound 0.00999 µM) 0.54% | viability, T/C [11] 2% | viability, T/C (second compound 10 µM, first compound 0.0999 µM) 0.38% | viability, T/C [12] 0.28%
inactive: viability, T/C (second compound 0.0316 µM, first compound 0.000999 µM) 104% | viability, T/C (second compound 0.0316 µM, first compound 0.00316 µM) 121% | viability, T/C (second compound 0.0316 µM, first compound 0.00999 µM) 101% | viability, T/C [1] 61.3% | viability, T/C (second compound 0.1 µM, first compound 0.000999 µM) 119% | viability, T/C (second compound 0.1 µM, first compound 0.00316 µM) 102% | viability, T/C (second compound 0.1 µM, first compound 0.00999 µM) 95.4% | viability, T/C [3] 56.6% | viability, T/C (second compound 0.1 µM, first compound 0.0999 µM) 7.42% | viability, T/C (second compound 0.316 µM, first compound 0.000999 µM) 79.9% | viability, T/C (second compound 0.316 µM, first compound 0.00316 µM) 75.7% | viability, T/C (second compound 0.316 µM, first compound 0.00999 µM) 74.9% | viability, T/C [5] 33.1% | viability, T/C (second compound 1 µM, first compound 0.000999 µM) 48.6% | viability, T/C (second compound 1 µM, first compound 0.00316 µM) 30.2% | viability, T/C (second compound 1 µM, first compound 0.00999 µM) 33.6% | viability, T/C [7] 15.8%
40 nM: IC50 (second compound 0.0316 µM)
35.1 nM: IC50 (second compound 0.1 µM)
< 0.999 nM: IC50 (second compound 1 µM) | IC50 (second compound 3.16 µM) | IC50 (second compound 10 µM)

COc1cc(C2c3cc4c(cc3C(OC3OC5COC(C)OC5C(O)C3O)C3COC(=O)C23)OCO4)cc(OC)c1O (stereo not drawn) + Cc1[nH]c2ccc(F)cc2c1-c1nc2c3cccnc3c3ncccc3c2[nH]1
inactive: viability, T/C [1] 103% | viability, T/C [13] 93% | viability, T/C [2] 59.5% | viability, T/C [14] 25.2% | viability, T/C [15] 17.9% | viability, T/C [16] 16.5% | viability, T/C [3] 96.2% | viability, T/C [17] 102% | viability, T/C [4] 43.5% | viability, T/C [18] 28.3% | viability, T/C [19] 17.6% | viability, T/C [20] 9.83% | viability, T/C [5] 113% | viability, T/C [21] 92.7% | viability, T/C [6] 40.6% | viability, T/C [22] 22.5% | viability, T/C [23] 14.5% | viability, T/C [24] 18.4% | viability, T/C [7] 84.7% | viability, T/C [25] 94.5% | viability, T/C [8] 41.8% | viability, T/C [26] 20.2% | viability, T/C [27] 13.6% | viability, T/C [28] 13.2% | viability, T/C [9] 80.8% | viability, T/C [29] 70% | viability, T/C [10] 34.5% | viability, T/C [30] 16.7% | viability, T/C [31] 16.1% | viability, T/C [32] 10% | viability, T/C [11] 73.1% | viability, T/C [33] 57.6% | viability, T/C [12] 47.7% | viability, T/C [34] 17.7% | viability, T/C [35] 11.9% | viability, T/C [36] 16.9%
432 nM: IC50 (second compound 0.0316 µM)
276 nM: IC50 (second compound 0.1 µM)
192 nM: IC50 (second compound 3.16 µM)
260 nM: IC50 (second compound 0.316 µM) | IC50 (second compound 1 µM)
222 nM: IC50 (second compound 10 µM)

CC(C)n1c(=O)n(C)c2cnc3cc(F)c(-c4ccc(OCCCN5CCCCC5)nc4)cc3c21 + Cc1cnc(CNC(=O)c2c(=O)c3ccc(N4CCCN(C)CC4)nc3n3c2sc2ccccc23)cn1
inactive: viability, T/C [1] 57.3% | viability, T/C [13] 51.3% | viability, T/C [2] 45.1% | viability, T/C [14] 29.2% | viability, T/C [15] 73.3% | viability, T/C [16] 44.5% | viability, T/C [3] 37.1% | viability, T/C [17] 37% | viability, T/C [4] 24.6% | viability, T/C [18] 25.9% | viability, T/C [19] 23.9% | viability, T/C [20] 25.3% | viability, T/C [5] 21.2% | viability, T/C [21] 25.9% | viability, T/C [6] 25.4% | viability, T/C [22] 22.1% | viability, T/C [23] 33% | viability, T/C [24] 17.5% | viability, T/C [7] 18.2% | viability, T/C [25] 22.1% | viability, T/C [8] 23.5% | viability, T/C [26] 19.4% | viability, T/C [27] 21.9% | viability, T/C [28] 21.5% | viability, T/C [9] 11.4% | viability, T/C [29] 13.9% | viability, T/C [10] 29.8% | viability, T/C [30] 10.7% | viability, T/C [31] 13.1% | viability, T/C [32] 11.4% | viability, T/C [11] 26.2% | viability, T/C [33] 16.6% | viability, T/C [12] 10.7% | viability, T/C [34] 21.9% | viability, T/C [35] 25.5% | viability, T/C [36] 23.4%
< 31.6 nM: IC50 (second compound 0.1 µM) | IC50 (second compound 0.316 µM) | IC50 (second compound 1 µM) | IC50 (second compound 3.16 µM) | IC50 (second compound 10 µM)
858 nM: IC50 (second compound 0.0316 µM)

C=CCn1c(=O)c2cnc(Nc3ccc(N4CCN(C)CC4)cc3)nc2n1-c1cccc(C(C)(C)O)n1 + Cc1[nH]c2ccc(F)cc2c1-c1nc2c3cccnc3c3ncccc3c2[nH]1
39.5 nM: IC50 (second compound 1 µM)
inactive: viability, T/C [1] 80.5% | viability, T/C [13] 55.3% | viability, T/C [2] 21.7% | viability, T/C [14] 17.8% | viability, T/C [15] 8.57% | viability, T/C [16] 9.56% | viability, T/C [3] 87% | viability, T/C [17] 59.7% | viability, T/C [4] 24.4% | viability, T/C [18] 12.8% | viability, T/C [19] 12% | viability, T/C [20] 11.9% | viability, T/C [5] 61.1% | viability, T/C [21] 40.1% | viability, T/C [6] 17.3% | viability, T/C [22] 11.3% | viability, T/C [7] 56% | viability, T/C [25] 25% | viability, T/C [8] 15.8% | viability, T/C [9] 25.2% | viability, T/C [29] 12.5% | viability, T/C [11] 33.5% | viability, T/C [33] 21.5% | viability, T/C [12] 13.4% | viability, T/C [34] 9.85%
< 31.6 nM: IC50 (second compound 3.16 µM) | IC50 (second compound 10 µM)
119 nM: IC50 (second compound 0.0316 µM)
137 nM: IC50 (second compound 0.1 µM)
58 nM: IC50 (second compound 0.316 µM)
active: viability, T/C [23] 10.9% | viability, T/C [24] 8.81% | viability, T/C [26] 7.15% | viability, T/C [27] 8.02% | viability, T/C [28] 10.3% | viability, T/C [10] 9.21% | viability, T/C [30] 5.63% | viability, T/C [31] 8.76% | viability, T/C [32] 6.68% | viability, T/C [35] 8.36% | viability, T/C [36] 9.58%
